# pIC50: −log10 of the molar value.
# Columns and labels:
# S. Typhimurium SL1344 = assay: Growth in LB medium (OD at 600 nm); type: cell-based; conditions: C26 at different concentrations
# Text: Experiment performed in a 96-well plate. Growth assessed by measuring the OD at 600 nm (N = 3 biological replicates).
# HeLa cells = assay: In vitro toxicity, ApoTox-Glo assay; type: cell-based
# macrophages RAW 264.7 = assay: In vitro toxicity, CellTox Green Cytotoxicity Assay, macrophages; type: cell-based; conditions: RAW 264.7, 6 hours exposure
# Protocol: The screening of in vitro toxicity of the compound analogs was performed with the CellTox Green Cytotoxicity Assay (Promega, USA) according to the manufacturer’s instructions. Cells (10^4 cells per well) were seeded into a 96-well plate and incubated for 24 hours at 37°C, 5% (v/v) CO2. Cells were then treated with the compound at different concentrations or 1% (v/v) DMSO in Dulbecco’s modified Eagle’s medium (DMEM) without phenol red at the desired exposure time. Fluorescence intensity was measured with a TECAN Spark microplate reader. […] page 4: […] 0 10000 20000 30000 40000 50000 Compound concentration (µM) Cytotoxicity (RFU) Fig. S3. […] Cytotoxicity Assay. Fluorescence was measured as a readout for cytotoxicity at 485Ex/520Em. N = 3 biological replicates. (1 picture or pasted object on this page, not shown here)
# HilD [1] = biological target: T1, HilD (Salmonella typhimurium, UniProt E1WAC0); assay: Whole-cell HilD activity assay (PhilA-sfGFP activation); type: cell-based, S. Typhimurium
# T1 construct: endogenous in cells; host or cells: S. Typhimurium SL1344 strain PhilA-sfGFP
# T1 sequence (E1WAC0 whole entry): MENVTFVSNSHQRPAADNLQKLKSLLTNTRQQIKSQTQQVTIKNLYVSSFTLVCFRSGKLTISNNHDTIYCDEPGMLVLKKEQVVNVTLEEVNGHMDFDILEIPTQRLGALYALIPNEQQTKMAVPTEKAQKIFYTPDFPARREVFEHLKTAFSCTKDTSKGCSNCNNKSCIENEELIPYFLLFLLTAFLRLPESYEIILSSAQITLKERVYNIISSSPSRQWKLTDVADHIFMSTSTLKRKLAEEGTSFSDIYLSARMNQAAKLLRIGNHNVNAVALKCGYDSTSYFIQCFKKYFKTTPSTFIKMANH
# Protocol: A whole-cell reporter gene assay was used to quantify HilD transcriptional activity. Strain PhilA-sfGFP and the isogenic ΔhilD PhilA-sfGFP were used for this purpose. Cultures were performed in 1 ml of LB supplemented with 0.3 M NaCl. Compounds at different concentrations or 1% (v/v) DMSO were added to the corresponding tubes. Cultures were incubated at 37°C and 180 rpm for 5 hours. Cells were pelleted, resuspended in 100 μl of PBS, and then transferred into a 96-well black clear-bottom plate (Thermo Fisher Scientific, USA). Fluorescence intensity was measured with a Tecan Spark microplate reader with an excitation wavelength of 485 nm and an emission wavelength of 510 nm. Dose-response curves and IC50 values were calculated using CDD Vault.
# HilC = biological target: T2, HilC (Salmonella typhimurium, UniProt E1WAB2); assay: EMSA, binding to hilA promoter, HilC; type: biochemical, S. Typhimurium
# T2 construct: His6 followed by TEV protease cleavage site (N, cleaved yes); made in house; host or cells: E. coli C41(DE3)
# T2 sequence (E1WAB2 whole entry): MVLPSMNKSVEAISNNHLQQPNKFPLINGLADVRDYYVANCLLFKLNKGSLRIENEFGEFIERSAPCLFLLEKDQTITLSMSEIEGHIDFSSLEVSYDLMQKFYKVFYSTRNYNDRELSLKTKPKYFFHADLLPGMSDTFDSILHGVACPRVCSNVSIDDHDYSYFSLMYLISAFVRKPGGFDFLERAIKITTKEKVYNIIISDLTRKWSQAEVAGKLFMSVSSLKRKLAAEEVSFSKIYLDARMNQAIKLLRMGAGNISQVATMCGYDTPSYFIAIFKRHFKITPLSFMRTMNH
# Protocol: EMSAs were performed similarly to as described previously ([39]) using a 62–base pair double-stranded (dsDNA) fragment of the hilA promoter, encompassing the A1 binding site ([82]). dsDNA fragments were generated by melting the complementary primers PhilA_A1_f / PhilA_A1_r (table S10) together in TE buffer [10 mM Tris (pH 8.0) and 1 mM EDTA] at 95°C for 10 min before slowly cooling to r.t. The forward primer was modified with a 5′-Cy5 fluorescent dye for detection. The protein (600 nM) was incubated with 50 nM labeled DNA in EMSA buffer [20 mM Tris (pH 8.0), 100 mM KCl, 100 μM EDTA, and 3% glycerol]. C26 was diluted first in DMSO and subsequently 1:100 into the protein-DNA sample. Samples were incubated at 37°C for 15 min, supplemented with diluted DNA loading dye, and separated on a 1.5-mm-thick, 6% (w/v) TBE polyacrylamide gel at 6°C at a constant voltage of 100 V. Gels were imaged using a ChemiDocMP imaging system (Bio-Rad).
# HilD dimer = biological target: T3, HilD dimer (Salmonella typhimurium, UniProt P0CL08); assay: BS3 cross-linking of HilD; type: biochemical, S. Typhimurium; conditions: oleic acid 50 and 100 μM; C26 up to 200 μM
# T3 construct: His6-SUMO (N, cleaved yes); made in house; host or cells: E. coli C41(DE3)
# T3 sequence (P0CL08 whole entry): as the sequence (E1WAC0 whole entry) above
# Protocol: BS^3 cross-linking of HilD was performed as previously described ([39]). In summary, HilD (10 μM) was first incubated with C26 or oleic acid in SEC buffer for 20 min at r.t., with a final DMSO concentration of 1% (v/v). HilD was then cross-linked by incubation with 0.2 mM BS^3 (Thermo Fisher Scientific, Pierce, A39266) at r.t. for 1 hour, before the reaction was quenched by the addition of 50 mM Tris (pH 7.5). Samples were analyzed using SDS-PAGE and visualized by silver staining.
# HilD mutants = assay: Alanine scan, plasmid-based whole-cell PhilA activation assay; parameters: species or system S. Typhimurium; conditions: C26 100 μM
# Protocol: A plasmid-based assay in a ΔSPI-1 background strain was developed to facilitate the introduction of point mutations in hilD. The Rha cassette (rhaS, rhaR, and Prha) was first deleted from the pT10 backbone ([67]). The fragment PhilD-hilD-PhilA-sfGFP was then inserted upstream of the terminator rrnB. hilD was then deleted from the resulting plasmid to serve as a negative control. Site-directed mutagenesis was performed using KOD polymerase (Novagen). The cell-based fluorescence assay was performed as described above. Statistical analysis was performed by applying a first Bonferroni’s multiple comparisons test to compare treated and untreated conditions within each strain (shown in Fig. 4E) and a second same test to compare the treated mutants to the treated WT condition. The absence of significance in both tests corresponds to mutations inactivating HilD. Significance in the first but not the second test corresponds to a phenotype similar to that of the WT.
# HilD variants = assay: Plasmid-based whole-cell assay, most frequent HilD substitutions; parameters: species or system S. enterica; conditions: C26 100 μM, 19 functional variants
# Protocol: The retrieved sequences and script used to determine the most frequent point mutations in HilD can be accessed on the Zenodo repository. Site-directed mutagenesis was performed using KOD polymerase (Novagen). PhilA activation was monitored as described above using the plasmid-based whole-cell fluorescence assay.
# HilD [2] = biological target: T1, HilD; assay: Whole-cell HilD activity assay (PhilA-sfGFP activation); type: cell-based, S. Typhimurium; conditions: C26 100 μM, strain overexpressing hilD
structure (smiles),measurement,setting,value
"CN(CC(=O)NCc1ccc2c(c1)OCO2)Cc1ccc(Br)s1 [C26, N-(benzo[d][1,3]dioxol-5-ylmethyl)-2-{[(5-bromothiophen-2-yl)methyl](methyl)amino}acetamide]",growth of S. Typhimurium,S. Typhimurium SL1344,did not impair the growth
same,TC50 viability,HeLa cells; 12 hours exposure,could not be calculated because of low toxicity levels
same,TC50 viability,HeLa cells; 18 hours exposure,98 µM
same,toxicity in macrophages,macrophages RAW 264.7,No toxicity was observed
same,pIC50,HilD [1],4.77
same,DNA binding activity of HilC (hilA promoter),HilC,no effect
same,levels of cross-linked HilD dimer,HilD dimer,did not affect the levels of cross-linking
same,"sensitivity of HilD I42A, I100A, N260A, K264A to C26",HilD mutants,partial loss of sensitivity
same,"sensitivity of HilD L45A, Y46A, F98A, E102A, Y212A to C26",HilD mutants,full loss of sensitivity
same,activity on the most frequent HilD substitution variants,HilD variants,inhibitory activity on all the tested variants at a level similar to that of the WT reference sequence
same,decrease of PhilA activation,HilD [2]; WT background,14%
same,decrease of PhilA activation,HilD [2]; ΔhilD ΔhilC ΔrtsA background,18%

# Source: paper PMC11988454, “Discovery of synthetic small molecules targeting the central regulator of Salmonella pathogenicity” (Science Advances, 2025)
